{"source": "ChEMBL document CHEMBL5661943", "about": "“ASAP - In vitro antiviral effect” (2024)", "key": {"dengue virus type 2": {"system": "dengue virus type 2", "assay": "Functional immunofluorescence assay to measure dose dependent changes in antiviral-drug inhibitory efficacy against Dengue virus type 2 Thailand/16681/84 in Vero E6/TMPRSS2 cells (cotreated with P-gp inhibitor, Elacridar). Cells are treated with antiviral candidates that are serially diluted, following infection, cells are fixed. EC50 is reported via analysis of immunofluorescence staining. The assay has been performed by Icahn School of Medicine at Mount Sinai.", "type": "organism-based, Chlorocebus sabaeus, VeroE6/TMPRSS2"}, "Zika virus": {"system": "Zika virus", "assay": "EC50 is reported via analysis of immunofluorescence staining. The assay has been performed by Icahn School of Medicine at Mount Sinai.", "type": "functional, organism-based, Chlorocebus sabaeus, VeroE6/TMPRSS2"}}}
{"smiles": "O=C(O)c1cc(Cl)ccc1S(=O)(=O)NC1CCN(c2nc(C3CC3)cc(C(F)(F)F)n2)CC1", "values": [{"measurement": "EC90", "setting": "dengue virus type 2; Dengue virus, VeroE6/TMPRSS2, Maximum measured 136.17 %, Minimum measured 94.607 %, P-gp concentration 2 uM, P-gp inhibitor Elacidar", "result": "> 16.7", "unit": "µM"}, {"measurement": "EC90", "setting": "dengue virus type 2; Dengue virus, VeroE6/TMPRSS2, Baseline response 0 %, Hill slope -0.112, Maximum measured 104.285 %, Maximum response 100 %, Minimum measured 47.241 %, P-gp concentration 2 uM, R squared 0.035, P-gp inhibitor Elacidar", "result": "> 3.33", "unit": "µM"}, {"measurement": "EC50", "setting": "dengue virus type 2; veroe6/tmprss2", "result": "> 16.7", "unit": "µM"}, {"measurement": "EC90", "setting": "Zika virus; Zika virus, VeroE6/TMPRSS2, Maximum measured 121.005 %, Minimum measured 84.589 %, P-gp concentration 2 uM, P-gp inhibitor Elacidar", "result": "> 16.7", "unit": "µM"}, {"measurement": "EC90", "setting": "Zika virus; Zika virus, VeroE6/TMPRSS2, Baseline response 0 %, Hill slope -0.273, Maximum measured 117.096 %, Maximum response 100 %, Minimum measured 55.547 %, P-gp concentration 2 uM, R squared 0.133, P-gp inhibitor Elacidar", "result": "> 3.33", "unit": "µM"}, {"measurement": "EC50", "setting": "Zika virus; veroe6/tmprss2", "result": "> 16.7", "unit": "µM"}]}
{"smiles": "CCCC(=O)Nc1cc(Cl)cc(C(=O)Nc2cccc(CN)c2)c1", "values": [{"measurement": "EC50", "setting": "dengue virus type 2; Dengue virus, VeroE6/TMPRSS2", "result": "> 50", "unit": "µM"}, {"measurement": "EC90", "setting": "dengue virus type 2; Dengue virus, VeroE6/TMPRSS2, Maximum measured 163.615 %, Minimum measured 116.069 %, P-gp concentration 2 uM, P-gp inhibitor Elacidar", "result": "> 50", "unit": "µM"}, {"measurement": "EC50", "setting": "Zika virus; Zika virus, VeroE6/TMPRSS2", "result": "> 16.7", "unit": "µM"}, {"measurement": "EC90", "setting": "Zika virus; Zika virus, VeroE6/TMPRSS2, Baseline response 0 %, Hill slope -0.382, Maximum measured 108.39 %, Maximum response 100 %, Minimum measured 82.052 %, P-gp concentration 2 uM, R squared 0.052, P-gp inhibitor Elacidar", "result": "> 16.7", "unit": "µM"}]}
{"smiles": "CC[C@H](Cc1nnn[nH]1)c1ccc(NC(=O)[C@H]2[C@H]3CCCCC[C@H]3[C@H]2NC(=O)OCc2ccccc2)cc1", "values": [{"measurement": "EC50", "setting": "dengue virus type 2; Dengue virus, VeroE6/TMPRSS2", "result": 16.1, "unit": "µM"}, {"measurement": "EC90", "setting": "dengue virus type 2; Dengue virus, VeroE6/TMPRSS2", "result": 44.8, "unit": "µM"}, {"measurement": "EC50", "setting": "Zika virus; Zika virus, VeroE6/TMPRSS2", "result": "> 50", "unit": "µM"}, {"measurement": "EC90", "setting": "Zika virus; Zika virus, VeroE6/TMPRSS2, Baseline response 0 %, Hill slope -0.151, Maximum measured 102.715 %, Maximum response 100 %, Minimum measured 55.5 %, P-gp concentration 2 uM, R squared 0.202, P-gp inhibitor Elacidar", "result": "> 50", "unit": "µM"}]}
{"smiles": "O=C(Nc1cc(Cl)cc(C(=O)Nc2ccc3c(c2)CNCCO3)c1)OCc1ccccc1", "values": [{"measurement": "EC50", "setting": "dengue virus type 2; Dengue virus, VeroE6/TMPRSS2", "result": 0.669, "unit": "µM"}, {"measurement": "EC90", "setting": "dengue virus type 2; Dengue virus, VeroE6/TMPRSS2, Baseline response 0 %, Hill slope -1.036, Maximum measured 111.022 %, Maximum response 100 %, Minimum measured 5.282 %, P-gp concentration 2 uM, R squared 0.817, P-gp inhibitor Elacidar", "result": "> 5.56", "unit": "µM"}, {"measurement": "EC50", "setting": "Zika virus; Zika virus, VeroE6/TMPRSS2", "result": 5.26, "unit": "µM"}, {"measurement": "EC90", "setting": "Zika virus; Zika virus, VeroE6/TMPRSS2, Baseline response 0 %, Hill slope -16.118, Maximum measured 155.613 %, Maximum response 100 %, Minimum measured 29.546 %, P-gp concentration 2 uM, R squared 0.374, P-gp inhibitor Elacidar", "result": "> 5.56", "unit": "µM"}]}
{"smiles": "NCc1cccc(NC(=O)[C@H]2[C@H]3CCCCC[C@H]3[C@H]2NC(=O)OCc2ccccc2)c1", "values": [{"measurement": "EC50", "setting": "dengue virus type 2; Dengue virus, VeroE6/TMPRSS2", "result": "> 5.56", "unit": "µM"}, {"measurement": "EC90", "setting": "dengue virus type 2; Dengue virus, VeroE6/TMPRSS2, Baseline response 0 %, Hill slope -0.21, Maximum measured 66.083 %, Maximum response 100 %, Minimum measured 25.848 %, P-gp concentration 2 uM, R squared 0.326, P-gp inhibitor Elacidar", "result": "> 5.56", "unit": "µM"}, {"measurement": "EC50", "setting": "Zika virus; Zika virus, VeroE6/TMPRSS2", "result": 1.43, "unit": "µM"}, {"measurement": "EC90", "setting": "Zika virus; Zika virus, VeroE6/TMPRSS2", "result": 9.76, "unit": "µM"}]}
{"smiles": "O=C(Nc1cc(Cl)cc(N[C@H](C#CCO)c2ccc(-c3nn[nH]n3)cc2)c1)OCc1ccccc1", "values": [{"measurement": "EC50", "setting": "dengue virus type 2; Dengue virus, VeroE6/TMPRSS2", "result": "> 50", "unit": "µM"}, {"measurement": "EC90", "setting": "dengue virus type 2; Dengue virus, VeroE6/TMPRSS2, Baseline response 0 %, Hill slope -0.373, Maximum measured 106.055 %, Maximum response 100 %, Minimum measured 56.8 %, P-gp concentration 2 uM, R squared 0.212, P-gp inhibitor Elacidar", "result": "> 50", "unit": "µM"}, {"measurement": "EC50", "setting": "Zika virus; Zika virus, VeroE6/TMPRSS2", "result": "> 16.7", "unit": "µM"}, {"measurement": "EC90", "setting": "Zika virus; Zika virus, VeroE6/TMPRSS2, Maximum measured 78.226 %, Minimum measured 29.543 %, P-gp concentration 2 uM, P-gp inhibitor Elacidar", "result": "> 16.7", "unit": "µM"}]}
{"smiles": "N#Cc1cc(Cl)cc(C(=O)Nc2ccc3c(c2)CNC3)c1", "values": [{"measurement": "EC50", "setting": "dengue virus type 2; Dengue virus, VeroE6/TMPRSS2", "result": "> 50", "unit": "µM"}, {"measurement": "EC90", "setting": "dengue virus type 2; Dengue virus, VeroE6/TMPRSS2, Maximum measured 57.395 %, Minimum measured 32.413 %, P-gp concentration 2 uM, P-gp inhibitor Elacidar", "result": "> 50", "unit": "µM"}, {"measurement": "EC50", "setting": "Zika virus; Zika virus, VeroE6/TMPRSS2", "result": 47.2, "unit": "µM"}, {"measurement": "EC90", "setting": "Zika virus; Zika virus, VeroE6/TMPRSS2, Baseline response 0 %, Hill slope -12.375, Maximum measured 129.405 %, Maximum response 100 %, Minimum measured 33.162 %, P-gp concentration 2 uM, R squared 0.602, P-gp inhibitor Elacidar", "result": "> 50", "unit": "µM"}]}
{"smiles": "C=CC[C@H](Nc1cc(Cl)cc(NC(=O)OCc2ccccc2)c1)c1cccc(-c2nn[nH]n2)c1", "values": [{"measurement": "EC50", "setting": "dengue virus type 2; Dengue virus, VeroE6/TMPRSS2", "result": 0.449, "unit": "µM"}, {"measurement": "EC90", "setting": "dengue virus type 2; Dengue virus, VeroE6/TMPRSS2", "result": 4.92, "unit": "µM"}, {"measurement": "EC50", "setting": "Zika virus; Zika virus, VeroE6/TMPRSS2", "result": 14.2, "unit": "µM"}, {"measurement": "EC90", "setting": "Zika virus; Zika virus, VeroE6/TMPRSS2, Baseline response 0 %, Hill slope -24.201, Maximum measured 231.442 %, Maximum response 100 %, Minimum measured 2.044 %, P-gp concentration 2 uM, R squared 0.135, P-gp inhibitor Elacidar", "result": 15.6, "unit": "µM"}]}
